According to PMC4232510, “Identification of Functionally Important Residues of the Rat P2X4 Receptor by Alanine Scanning Mutagenesis of the Dorsal Fin and Left Flipper Domains” (PLoS ONE, 2014):
Substitutions are numbered along the chain they refer to.

Key:
Assay in all cases: whole-cell patch clamp, HEK293T cells expressing mutant
Format in all cases: cell-based
Conditions in all cases: for relative responsiveness: 100 µM agonist 2 s, relative to ATP (100%)
rP2X4R L206A mutant = molecular target: T1, rP2X4R L206A mutant (Rattus norvegicus, UniProt P51577, L206A)
T1 construct: expressed in transfected cells; host or cells: HEK293T
T1 sequence (P51577 1-388 L206A): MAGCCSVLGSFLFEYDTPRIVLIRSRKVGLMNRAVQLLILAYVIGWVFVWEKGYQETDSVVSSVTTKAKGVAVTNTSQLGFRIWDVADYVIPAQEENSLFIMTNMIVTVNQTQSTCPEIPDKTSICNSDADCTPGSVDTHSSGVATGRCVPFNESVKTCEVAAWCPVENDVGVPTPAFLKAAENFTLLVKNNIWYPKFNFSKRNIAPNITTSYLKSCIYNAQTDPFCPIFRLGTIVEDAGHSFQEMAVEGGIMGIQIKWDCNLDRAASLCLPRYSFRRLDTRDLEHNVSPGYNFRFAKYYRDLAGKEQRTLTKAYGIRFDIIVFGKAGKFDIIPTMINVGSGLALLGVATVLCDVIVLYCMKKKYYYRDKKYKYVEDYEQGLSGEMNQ

rP2X4R Y213A mutant = molecular target: T2, rP2X4R Y213A mutant (Rattus norvegicus, UniProt P51577, Y213A)
T2 construct: expressed in transfected cells; host or cells: HEK293T
T2 sequence (P51577 1-388 Y213A): T1 sequence (P51577 1-388 L206A) with A206L, Y213A

rP2X4R D280A mutant = molecular target: T3, rP2X4R D280A mutant (Rattus norvegicus, UniProt P51577, D280A)
T3 construct: expressed in transfected cells; host or cells: HEK293T
T3 sequence (P51577 1-388 D280A): T1 sequence (P51577 1-388 L206A) with A206L, D280A

[1] = 100 µM ATP 60 s, biexponential fit
[2] = contribution of τdes2, 100 µM ATP 60 s
[3] = decay after removal of 1 or 3 µM ATP, 3 µM IVM
[4] = naïve receptors, 2–5 s application
[5] = 3 µM IVM 4-6 min vs IVM-untreated

2′(3′-O-(4-Benzoylbenzoyl)adenosine 5′-triphosphate [BzATP]
relative responsiveness (rP2X4R L206A mutant): 33.7±8.0% | relative responsiveness (rP2X4R Y213A mutant): 27.3±5.5% | relative responsiveness (rP2X4R D280A mutant): 25.4±1.5%

CSc1nc(N)c2ncn([C@@H]3O[C@H](COP(=O)(O)OP(=O)(O)OP(=O)(O)O)[C@@H](O)[C@H]3O)c2n1 [2-MeS-ATP, 2-(Methylthio)adenosine 5′-triphosphate]
relative responsiveness (rP2X4R L206A mutant): 68.3±6.5% | relative responsiveness (rP2X4R Y213A mutant): 63.8±16.4% | relative responsiveness (rP2X4R D280A mutant): 56.3±7.8%

Nc1ncnc2c1ncn2[C@@H]1O[C@H](COP(=O)(O)OP(=O)(O)OP(=O)(O)O)[C@@H](O)[C@H]1O [ATP]
τdes1 (rP2X4R L206A mutant; [1]): 1.1 ± 0.2 s | τdes2 (rP2X4R L206A mutant; [1]): 8.9 ± 2.2 s | Imax (rP2X4R L206A mutant; 100–1000 µM ATP): 2.4 ± 0.3 nA | Imax+IVM (rP2X4R L206A mutant; ATP after 3 µM IVM 4-6 min): 4.8 ± 0.8 nA | A2 /(A1+A2) (rP2X4R L206A mutant; [2]): 70 ± 4% | τoff +IVM (rP2X4R L206A mutant; [3]): 9.0 ± 1.4 s | EC50 (rP2X4R L206A mutant; [4]): 10 ± 4.1 µM | τdes (rP2X4R L206A mutant; weighted, 100 µM ATP 60 s): 6.3 ± 1.6 s | τdes1 (rP2X4R Y213A mutant; [1]): 3.0 ± 0.3 s | τdes2 (rP2X4R Y213A mutant; [1]): 12.4 ± 1.6 s | Imax (rP2X4R Y213A mutant; 100–1000 µM ATP): 2.2 ± 0.4 nA | Imax+IVM (rP2X4R Y213A mutant; ATP after 3 µM IVM 4-6 min): 3.1 ± 0.2 nA | A2 /(A1+A2) (rP2X4R Y213A mutant; [2]): 61 ± 6% | τoff +IVM (rP2X4R Y213A mutant; [3]): 18 ± 4.3 s | EC50 (rP2X4R Y213A mutant; [4]): 6 ± 0.9 µM | τdes (rP2X4R Y213A mutant; weighted, 100 µM ATP 60 s): 8.5 ± 0.8 s | EC50 rightward shift compared to WT (rP2X4R D280A mutant): approximately 10 fold | τdes1 (rP2X4R D280A mutant; [1]): 3.9 ± 1.2 s | τdes2 (rP2X4R D280A mutant; [1]): 22.9 ± 7.8 s | Imax (rP2X4R D280A mutant; 100–1000 µM ATP): 0.7 ± 0.1 nA | Imax+IVM (rP2X4R D280A mutant; ATP after 3 µM IVM 4-6 min): 3.6 ± 0.4 nA | A2 /(A1+A2) (rP2X4R D280A mutant; [2]): 62 ± 6% | τoff +IVM (rP2X4R D280A mutant; [3]): 5.5 ± 0.3 s | EC50 (rP2X4R D280A mutant; [4]): 26 ± 8.2 µM | τdes (rP2X4R D280A mutant; weighted, 100 µM ATP 60 s): 15 ± 3.7 s

Nc1ncnc2c1ncn2[C@@H]1O[C@H](CO[P@](=O)(O)O[P@](=O)(O)O[P@@](=O)(O)S)[C@@H](O)[C@H]1O [ATPγS, Adenosine 5′-(γ-thio)triphosphate]
relative responsiveness (rP2X4R L206A mutant): 39.6±8.4% | relative responsiveness (rP2X4R Y213A mutant): 37.1±5.5% | relative responsiveness (rP2X4R D280A mutant): 55.7±3.8%

CC[C@H](C)[C@H]1O[C@]2(CC[C@@H]1C)C[C@@H]1C[C@@H](C/C=C(\C)[C@@H](O[C@H]3C[C@H](OC)[C@@H](O[C@H]4C[C@H](OC)[C@@H](O)[C@H](C)O4)[C@H](C)O3)[C@@H](C)/C=C/C=C3\CO[C@@H]4[C@H](O)C(C)=C[C@@H](C(=O)O1)[C@]34O)O2 [IVM, ivermectin]
Fold incr. Imax (rP2X4R L206A mutant; [5]): 1.7 ± 0.2 fold | Fold incr. Imax (rP2X4R Y213A mutant; [5]): 1.4 ± 0.1 fold | Fold incr. Imax (rP2X4R D280A mutant; [5]): 5.1 ± 0.5 fold

Nc1ncnc2c1ncn2C1OC(COP(=O)(O)CP(=O)(O)OP(=O)(O)O)C(O)C1O (stereo not drawn) [α,β-meATP, α,β-methyleneadenosine 5′-triphosphate]
relative responsiveness (rP2X4R L206A mutant): 27.5±2.5% | relative responsiveness (rP2X4R Y213A mutant): 31.3±6.7% | relative responsiveness (rP2X4R D280A mutant): 33.1±6.0%
